Measurements published in publication PMC9339071, “Toward in vivo proof of binding of ^18F-labeled inhibitor [^18F]TRACK to peripheral tropomyosin receptor kinases” (EJNMMI Research, 2022).

Biological target: T1, TrkA (tropomyosin 3-TrkA fusion protein, TPM3-NTRK1) (Homo sapiens, UniProt P04629)
T1 construct: tropomyosin 3-TrkA fusion protein (TPM3-NTRK1), endogenous in KM12 cells
Test: competition with [18F]TRACK radiotracer uptake in intact KM12 cells
Type: cell-based

T1 sequence (P04629 405-796 limits assumed): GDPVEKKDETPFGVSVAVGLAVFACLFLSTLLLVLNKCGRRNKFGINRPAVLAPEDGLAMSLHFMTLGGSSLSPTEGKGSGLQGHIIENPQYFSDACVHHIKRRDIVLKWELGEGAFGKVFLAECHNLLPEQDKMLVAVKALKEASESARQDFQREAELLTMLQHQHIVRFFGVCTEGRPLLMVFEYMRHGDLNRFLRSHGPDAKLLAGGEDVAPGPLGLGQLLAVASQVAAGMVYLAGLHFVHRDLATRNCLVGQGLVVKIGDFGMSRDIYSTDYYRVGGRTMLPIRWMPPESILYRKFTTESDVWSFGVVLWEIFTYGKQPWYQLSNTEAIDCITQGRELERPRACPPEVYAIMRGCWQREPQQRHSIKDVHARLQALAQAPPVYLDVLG
T1 sequence (P06753 2-285 partner): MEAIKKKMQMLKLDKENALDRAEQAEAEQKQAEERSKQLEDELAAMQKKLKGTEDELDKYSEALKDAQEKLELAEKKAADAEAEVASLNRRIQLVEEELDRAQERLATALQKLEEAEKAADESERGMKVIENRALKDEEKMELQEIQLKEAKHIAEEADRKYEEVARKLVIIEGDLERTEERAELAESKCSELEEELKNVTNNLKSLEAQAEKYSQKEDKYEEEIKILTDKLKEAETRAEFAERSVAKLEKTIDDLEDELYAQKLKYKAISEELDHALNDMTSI

IC50: 29.4 ± 9.4 nM
SMILES: O=C(Nc1ccc(F)c(F)c1)c1cnc2ccc(N3CCC[C@@H]3c3cccc(F)c3)nn12 [TRACK]
